The values that follow come from patent publication USRE49816E1, “Dipeptides as inhibitors of human immunoproteasomes” (CORNELL UNIVERSITY, priority 2014, dated 2024).

Molecules are shown by their SMILES.

One data set deals with hu i-20S β5i-subunit (Homo sapiens, UniProt P20618+P28062). Kind of data set: N,C-capped dipeptides IC50, Ac-ANW-AMC fluorescence assay. The class given is biochemical. The settings on record: for SI (selectivity index): Hu c-20S over Hu i-20S.
In the next data set the target is hu c-20S β5c-subunit (Homo sapiens, UniProt P20618+P28074). The data set is described as follows: N,C-capped dipeptides IC50, succ-LLVY-AMC fluorescence assay. The class given is biochemical.
In another data set the test system is Karpas 1106p cells. Kind of data set: Cytotoxicity (LD50) against Karpas lymphoma cells. The data set is classed as cell-based, human. The settings on record: Table 3. The source says:
Table 3 lists the inhibition kinetic parameters, selectivity index, and calculated log Ps of selected dipeptides.

Experimental for hu c-20S β5c-subunit: (§1) All inhibitory assays for N,C capped dipeptides were performed in a black solid-bottom 96-well plate. In general, compound plates were prepared starting from 10 mM in 3× series dilution to 15 μM. 1 μl of DMSO stock was transferred to a black 96-well plate and 100 μL of reaction mixture were added 15 μM N-acetyl-Alanine-Asparagine-Tryptophan-7-amino-4-methylcourmarin (Ac-ANW-AMC) or 25 μM succinyl-Leucine-Leucine-Valine-Tyrosine-7-amino-4-methyl-courmarin (succ-LLVY-AMC), 0.4 nM hu i-20S β5i-subunit or 0.2 nM hu c-20S β5c-subunit, 0.02% SDS, 1% BSA, 0.5 mM EDTA in 20 mM HEPES buffer at pH7.5. The plates were then spun at 1000 rpm for 1 minute, and the fluorescence units of each well were recorded at λex=360 nm, λem=460 nm for 2 hours. The slopes of the initial linear range of the time course were used to calculate the velocity, and relative activities were normalized to the velocities of the DMSO control.
Experimental for hu i-20S β5i-subunit: as §1

On to `COC[C@H](NC(=O)CCc1ccccc1)C(=O)N[C@@H](C)C(=O)NCc1cccc2ccccc12` [DPLG-2048, (S)-3-methoxy-N—((S)-1-((naphthalen-1-ylmethyl)amino)-1-oxopropan-2-yl)-2-(3-phenylpropanamido)propanamide], for which the IC50 (commonly the concentration at which inhibition is half-maximal) against hu i-20S β5i-subunit turned out to be 34.9 µM; against hu c-20S β5c-subunit, 59.8 µM. The “SI (selectivity index)” value at hu i-20S β5i-subunit was determined as 1.7. Also, the LD50 in the data set with Karpas 1106p cells was more than 100 µM.
Turning to `COC[C@H](NC(=O)CCc1ccccc1)C(=O)N[C@@H](Cc1ccc(F)cc1)C(=O)NCc1cccc2ccccc12` [DPLG-2054, (S)-3-(4-fluorophenyl)-2-((S)-3-methoxy-2-(3-phenylpropanamido)propanamido)-N-(naphthalen-1-ylmethyl)propanamide], on hu i-20S β5i-subunit, the IC50 was more than 100 µM and the “SI (selectivity index)” value is recorded as less than 0.8. On hu c-20S β5c-subunit, the IC50 came to 75.8 µM. Besides, in the data set on Karpas 1106p cells, the LD50 is more than 100 µM.
The corresponding values for `C[C@H](NC(=O)[C@H](CC(=O)NOC(C)(C)C)NC(=O)CCc1ccccc1)C(=O)NCc1ccnc2ccccc12` [DPLG-2068, (S)—N^4-(tert-butoxy)-N^1—((S)-1-oxo-1-((quinolin-4-ylmethyl)amino)propan-2-yl)-2-(3-phenylpropanami-do)succinamide] are 3.06 µM, 9.3, 28.4 µM and more than 100 µM.
The corresponding values for `C[C@H](NC(=O)[C@H](CC(=O)NOC(C)(C)C)NC(=O)CCc1ccccc1)C(=O)NCc1cccc2ncccc12` [DPLG-2073, (S)—N^4-(tert-butoxpropan-2-yl)-2-(3-phenylpropanami-do)succinamide] are 1.37 µM, 10, 13.3 µM and more than 100 µM.
In turn, `C[C@H](NC(=O)[C@H](CC(=O)NOC(C)(C)C)NC(=O)c1cnccn1)C(=O)NCc1cccc2ccccc12` [DPLG-2098] showed an LD50 in the data set with Karpas 1106p cells of more than 100 µM.
As for `CC(=O)N[C@@H](Cc1ccc(F)cc1)C(=O)NCc1cccc2ccccc12` [DPLG-2109], on hu i-20S β5i-subunit, the IC50 amounted to 57.1 µM and the “SI (selectivity index)” value is reported as more than 2. The molecule also had an IC50 on hu c-20S β5c-subunit of more than 100 µM. Further, the LD50 with Karpas 1106p cells is more than 100 µM.
As for `C[C@H](NC(=O)[C@H](CC(=O)NOC(C)(C)C)NC(=O)Cc1ccccc1)C(=O)NCc1cccc2ccccc12` [DPLG-2142, (S)—N4-(tert-butoxy)-N1-((S)-1-((naphthalen-1-ylmethyl)amino)-1-oxopropan-2-yl)-2-(2-phenylacetamido)succinamide], in the data set with Karpas 1106p cells, the LD50 came out at 9.1 µM.
Regarding `COC[C@H](NC(=O)[C@H](CC(=O)NOC(C)(C)C)NC(=O)CN1CCOCC1)C(=O)NCc1cccc2ccccc12` [DPLG-2143, (S)—N^4-(tert-butoxy)-N^1—((S)-3-methoxy-1-((naphthalen-1-ylmethyl)amino)-1-oxopropan-2-yl)-2-(2-morpholinoacetamido)succinamide], the figures for the IC50 against hu i-20S β5i-subunit and at hu c-20S β5c-subunit were 0.25 µM and 19.6 µM, respectively. Also, the “SI (selectivity index)” value at hu i-20S β5i-subunit is given as 78. Besides, the LD50 in the data set on Karpas 1106p cells was more than 100 µM.
For `COC[C@H](NC(=O)[C@H](CC(=O)NOC(C)(C)C)NC(=O)c1cc(C)on1)C(=O)NCc1cccc2ccccc12` [DPLG-2144, (S)—N^4-(tert-butoxy)-N^1—((S)-3-methoxy-1-((napthalen-1-ylmethyl)amino)-1-oxopropan-2-yl)-2-(5-methylisoxazole-3-carboxamido)succinamide], the IC50 at hu i-20S β5i-subunit is 0.009 µM; against hu c-20S β5c-subunit, 0.62 µM. On hu i-20S β5i-subunit, the “SI (selectivity index)” value is 69. For the same molecule, the LD50 in the data set on Karpas 1106p cells turned out to be 1.47 µM.
Regarding `COC[C@H](NC(=O)[C@H](CC(=O)NOC(C)(C)C)NC(=O)CCc1ccccc1)C(=O)NCc1cccc(OC)c1OC` [DPLG-2211], on hu i-20S β5i-subunit, half-maximal inhibition (IC50) was put at 0.245 µM and the “SI (selectivity index)” value is 5. The same molecule gave an IC50 against hu c-20S β5c-subunit of 1.28 µM. In the data set on Karpas 1106p cells, this molecule returned an LD50 of 4.18 µM.
The matching figures for `COC[C@H](NC(=O)[C@H](CC(=O)NC1COC1)NS(C)(=O)=O)C(=O)NCc1cccc2ccccc12` [DPLG-2219, (S)—N^1—((S)-3-methoxy-1-((naphthalen-1-ylmethyl)amino)-1-oxopropan-2-yl)-2-(methylsulfonamido)-N^4-(oxetan-3-yl)succinamide]: 4.73 µM, more than 21, more than 100 µM and more than 100 µM.
The matching figures for `COC[C@H](NC(=O)[C@H](CC(=O)NOC(C)(C)C)NC(=O)CCc1ccccc1)C(=O)NCc1cccc2cccnc12` [DPLG-2220]: 0.07 µM, 19, 1.35 µM and 6.27 µM.
Regarding `COC[C@H](NC(=O)[C@H](CC(=O)NOC(C)(C)C)NC(=O)Cc1ccccc1)C(=O)NCc1cccc2ccccc12` [DPLG-2222, (S)—N^4-(tert-butoxy)-N^1—((S)-3-methoxy-1-((naphthalen-1-ylmethyl)amino)-1-oxopropan-2-yl)-2-(2-phenylacetamido)succinamide], the IC50 on hu i-20S β5i-subunit was determined as 0.011 µM; against hu c-20S β5c-subunit, 0.738 µM. Besides, the “SI (selectivity index)” value at hu i-20S β5i-subunit is given as 70. Moreover, the LD50 in the data set on Karpas 1106p cells was more than 100 µM.
The corresponding values for `COC[C@H](NC(=O)[C@H](CC(=O)NOC(C)(C)C)NC(=O)CCCc1ccccc1)C(=O)NCc1cccc2ccccc12` [DPLG-2223, (S) N^4-(tert-butoxy)-N^1—((S)-3methoxy-1-((naphthalen-1-ylmethyl)amino)-1-oxopropan-2-yl)-2-(4-phenylbutanamido)succinamide] are 0.0065 µM, 0.767 µM, 118 and 4.47 µM.
`CC(C)[C@H](NC(=O)[C@H](CC(=O)NOC(C)(C)C)NC(=O)CCc1ccccc1)C(=O)NCc1cccc2ccccc12` [DPLG-2224, (S)—N^4-(tert-butoxy)-N^1—((S)-3-methyl-1-((naphthalen-1-ylmethyl)amino)-1-oxobutan-2-yl)-2-(3-phenylpropanamido)succinamide]: at hu i-20S β5i-subunit, the IC50 amounted to 0.0043 µM and the “SI (selectivity index)” value is recorded as 53. This molecule yielded an IC50 on hu c-20S β5c-subunit of 0.228 µM. For the same molecule, the LD50 with Karpas 1106p cells is more than 100 µM.
The matching figures for `COC[C@H](NC(=O)[C@H](CC(=O)NOC(C)(C)C)NC(=O)CCc1ccccc1)C(=O)NCc1cccc2c1NCCC2` [DPLG-2226, (S)—N^4-(tert-butoxy)-N^−1—((S)-3-methoxy-1-oxo-1-(((1,2,3,4-tetrahydroquinolin-8-yl)methyl)amino)propan-2-yl)-2-(3-phenylpropanamido)succinamide]: 1.15 µM, 68, 78.1 µM and more than 100 µM.
The corresponding values for `COC[C@H](NC(=O)[C@H](CC(=O)NC1COC1)NS(=O)(=O)c1ccc(C)cc1)C(=O)NCc1cccc2ccccc12` [DPLG-2229] are 0.069 µM, 236, 19.3 µM and more than 100 µM.
Molecule `COC[C@H](NC(=O)[C@H](CC(=O)NC(C)(C)C)NC(=O)CCc1ccccc1)C(=O)NCc1cccc2ccccc12` [DPLG-2230, (S)—N^4-(tert-butyl)-N^1—((S)-3-methoxy-1-((naphthalen-1-ylmethyl)amino)-1-oxopropan-2-yl)-2-(3-phenylpropanamido)succinamide] had an LD50 in the data set with Karpas 1106p cells of 1.11 µM.
Still for that read-out and setting: to `COC[C@H](NC(=O)[C@H](CC(=O)NC(C)(C)C)NC(=O)c1cc(C)on1)C(=O)NCc1cccc2ccccc12` [DPLG-2244, (S)—N^4-(tert-butyl)-N^1((S)-3-methoxy-1-((naphthalen-1-ylmethyl)amino)-1-oxopropan-2-yl)-2-(5-methylisoxazole-3-carboxamido)succinamide] belongs 2.20 µM.
For `C[C@H](NC(=O)[C@H](CCC(=O)NC(C)(C)C)NC(=O)CCc1ccccc1)C(=O)NCCc1cccc2ccccc12` [DPLG-3012], the values for the IC50 against hu i-20S β5i-subunit and at hu c-20S β5c-subunit were 0.93 µM and 9.65 µM, respectively. Also, the “SI (selectivity index)” value at hu i-20S β5i-subunit turned out to be 10.4. The same molecule displayed an LD50 in the data set with Karpas 1106p cells of 4.16 µM.
The corresponding values for `C[C@H](NC(=O)[C@H](CCC(=O)NC(C)(C)C)NC(=O)CCc1ccccc1)C(=O)NOc1ccccc1` [DPLG-3013] are 0.23 µM, 0.66 µM, 2.9 and 11.03 µM.
Regarding `Cc1ccc(S(=O)(=O)N[C@@H](CCC(=O)NC(C)(C)C)C(=O)N[C@@H](C)C(=O)NCc2cccc(C(F)(F)F)c2)cc1` [DPLG-3014], on hu i-20S β5i-subunit, the IC50 amounted to 0.025 µM and the “SI (selectivity index)” value stood at 17. Besides, on hu c-20S β5c-subunit, inhibition was half-maximal at 0.42 µM (IC50). In the data set with Karpas 1106p cells, this molecule yielded an LD50 of 0.96 µM.
Turning to `Cc1ccc(S(=O)(=O)N[C@@H](CCC(=O)NC(C)(C)C)C(=O)N[C@@H](C)C(=O)NOc2ccccc2)cc1` [DPLG-3017], at hu i-20S β5i-subunit, the IC50 is 0.099 µM and the “SI (selectivity index)” value was found to be 6. In addition, on hu c-20S β5c-subunit, the IC50 came out at 0.6 µM. The same molecule yielded an LD50 with Karpas 1106p cells of 6.33 µM.
Take `C[C@H](NC(=O)[C@H](CC(=O)NC(C)(C)C)NC(=O)C(=O)c1c[nH]c2ccccc12)C(=O)NCc1cccc2ccccc12` [DPLG-3053]: the LD50 in the data set with Karpas 1106p cells worked out at 0.22 µM.
As for `CC(C)(C)NC(=O)C[C@H](NC(=O)CCc1ccccc1)C(=O)N[C@@H](Cc1ccncc1)C(=O)NCc1cccc2ccccc12` [DPLG-21033], on hu i-20S β5i-subunit, the IC50 turned out to be 0.0053 µM and the “SI (selectivity index)” value is 83. This molecule also showed a half-inhibitory concentration (IC50) against hu c-20S β5c-subunit of 0.438 µM.
The matching figures for `CC(C)(C)NC(=O)C[C@H](NC(=O)CCc1ccccc1)C(=O)N[C@@H](Cc1ccc(F)cc1)C(=O)NCc1ccc(-c2ccccc2)cc1` [DPLG-21049]: 0.133 µM, 5 and 0.7 µM.
The corresponding values for `CC(C)(C)NC(=O)C[C@H](NC(=O)CCc1ccccc1)C(=O)N[C@@H](Cc1ccc(F)cc1)C(=O)NCc1cccc(-c2ccccc2)c1` [DPLG-21050] are 0.026 µM, more than 3846 and more than 100 µM.
